Experimental data taken from ChEMBL document CHEMBL1155531, “Structure guided design of 5-arylindazole glucocorticoid receptor agonists and antagonists” (J Med Chem, 2010).
Values belong to the molecule of their own block, whether it stands above or below them.

What was measured:
Glucocorticoid receptor [1] = biological target: T1, Glucocorticoid receptor (Homo sapiens, UniProt P04150); assay: Displacement of fluorescent-labeled Dexamethasone from GR by fluorescent polarization assay
T1 sequence (P04150 whole entry): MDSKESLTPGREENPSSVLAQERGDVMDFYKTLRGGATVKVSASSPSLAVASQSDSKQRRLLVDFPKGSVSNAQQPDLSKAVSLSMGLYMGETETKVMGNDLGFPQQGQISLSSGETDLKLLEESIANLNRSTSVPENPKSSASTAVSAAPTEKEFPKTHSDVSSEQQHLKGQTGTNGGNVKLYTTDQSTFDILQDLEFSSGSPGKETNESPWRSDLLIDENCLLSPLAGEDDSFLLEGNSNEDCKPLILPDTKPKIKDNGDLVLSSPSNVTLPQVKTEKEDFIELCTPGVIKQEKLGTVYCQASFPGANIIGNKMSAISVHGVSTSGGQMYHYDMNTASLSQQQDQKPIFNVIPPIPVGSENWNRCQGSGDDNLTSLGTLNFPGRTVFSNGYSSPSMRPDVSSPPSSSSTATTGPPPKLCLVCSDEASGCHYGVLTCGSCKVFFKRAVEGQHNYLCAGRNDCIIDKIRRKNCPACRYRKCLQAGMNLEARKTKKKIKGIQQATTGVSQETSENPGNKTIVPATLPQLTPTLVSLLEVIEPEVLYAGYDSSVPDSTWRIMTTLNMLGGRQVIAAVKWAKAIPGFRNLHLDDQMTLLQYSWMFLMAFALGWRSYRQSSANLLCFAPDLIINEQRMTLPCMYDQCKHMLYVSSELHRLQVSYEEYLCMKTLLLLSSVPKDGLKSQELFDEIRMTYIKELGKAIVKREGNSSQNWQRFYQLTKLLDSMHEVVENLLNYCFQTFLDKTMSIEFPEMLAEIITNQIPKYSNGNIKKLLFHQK

Glucocorticoid receptor [2] = biological target: T1, Glucocorticoid receptor; assay: Agonist activity at GR in human A549 cells transfected with luciferase gene linked to MMTV promoter assessed as luciferase transactivation activity after 24 hrs; type: functional, cell-based
Progesterone receptor = biological target: T2, Progesterone receptor (Homo sapiens, UniProt P06401); assay: Binding affinity to PR
T2 sequence (P06401 whole entry): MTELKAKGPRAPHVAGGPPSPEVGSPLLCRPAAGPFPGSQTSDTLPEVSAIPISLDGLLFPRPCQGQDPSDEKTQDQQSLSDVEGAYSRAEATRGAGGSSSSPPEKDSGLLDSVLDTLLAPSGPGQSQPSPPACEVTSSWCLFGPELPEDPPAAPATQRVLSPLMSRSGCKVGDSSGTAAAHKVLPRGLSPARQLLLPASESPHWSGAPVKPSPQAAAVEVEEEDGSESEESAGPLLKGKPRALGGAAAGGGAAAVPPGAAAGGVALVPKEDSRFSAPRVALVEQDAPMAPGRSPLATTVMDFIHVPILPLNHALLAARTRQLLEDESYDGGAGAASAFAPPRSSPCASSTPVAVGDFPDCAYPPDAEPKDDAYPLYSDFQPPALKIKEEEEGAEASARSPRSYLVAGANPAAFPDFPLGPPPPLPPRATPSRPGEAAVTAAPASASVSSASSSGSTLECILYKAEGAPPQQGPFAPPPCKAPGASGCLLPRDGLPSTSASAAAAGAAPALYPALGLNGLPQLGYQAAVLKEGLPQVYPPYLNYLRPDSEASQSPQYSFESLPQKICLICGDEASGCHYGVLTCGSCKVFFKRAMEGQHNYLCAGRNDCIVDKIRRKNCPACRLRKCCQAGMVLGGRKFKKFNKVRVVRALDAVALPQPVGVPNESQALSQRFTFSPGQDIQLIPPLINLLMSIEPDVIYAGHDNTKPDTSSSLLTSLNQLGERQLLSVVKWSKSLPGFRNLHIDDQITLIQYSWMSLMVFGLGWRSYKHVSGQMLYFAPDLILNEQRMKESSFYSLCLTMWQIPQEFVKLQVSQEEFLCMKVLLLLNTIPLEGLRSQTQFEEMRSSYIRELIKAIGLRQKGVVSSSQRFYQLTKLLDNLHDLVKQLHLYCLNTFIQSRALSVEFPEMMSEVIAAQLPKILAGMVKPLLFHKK

Androgen receptor = biological target: T3, Androgen receptor (Homo sapiens, UniProt P10275)
T3 sequence (P10275 whole entry): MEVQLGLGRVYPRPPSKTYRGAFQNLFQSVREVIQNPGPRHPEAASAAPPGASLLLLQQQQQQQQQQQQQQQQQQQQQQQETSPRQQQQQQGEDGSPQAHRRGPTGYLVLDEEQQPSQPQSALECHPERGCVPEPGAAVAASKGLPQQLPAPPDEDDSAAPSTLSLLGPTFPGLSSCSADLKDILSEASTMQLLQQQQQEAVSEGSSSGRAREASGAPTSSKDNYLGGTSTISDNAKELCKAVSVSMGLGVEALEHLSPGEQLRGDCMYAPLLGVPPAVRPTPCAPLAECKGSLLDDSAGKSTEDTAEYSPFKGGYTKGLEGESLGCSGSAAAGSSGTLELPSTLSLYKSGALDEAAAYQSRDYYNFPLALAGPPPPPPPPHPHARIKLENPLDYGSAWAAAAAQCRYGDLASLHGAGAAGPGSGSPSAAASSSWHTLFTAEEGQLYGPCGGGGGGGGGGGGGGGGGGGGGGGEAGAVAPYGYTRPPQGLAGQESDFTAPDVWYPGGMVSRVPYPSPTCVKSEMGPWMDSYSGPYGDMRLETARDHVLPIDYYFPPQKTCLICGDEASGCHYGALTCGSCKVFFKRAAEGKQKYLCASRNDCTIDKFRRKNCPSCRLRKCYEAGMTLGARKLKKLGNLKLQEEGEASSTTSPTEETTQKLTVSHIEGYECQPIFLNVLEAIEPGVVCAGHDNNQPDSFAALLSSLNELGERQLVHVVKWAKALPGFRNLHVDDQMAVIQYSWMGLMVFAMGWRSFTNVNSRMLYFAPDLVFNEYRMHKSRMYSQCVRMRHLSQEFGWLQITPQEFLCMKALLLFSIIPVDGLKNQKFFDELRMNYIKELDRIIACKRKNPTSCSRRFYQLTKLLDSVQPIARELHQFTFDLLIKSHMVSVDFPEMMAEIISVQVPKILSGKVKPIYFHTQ

Glucocorticoid receptor [3] = biological target: T1, Glucocorticoid receptor; assay: Activity at GR in human A549 cells by NF-kappaB transrepression assay; type: cell-based
[4] = Toxicity in human skeletal muscle cells assessed as increase in glutamine synthase mRNA level after 18 hrs by PCR
Mus musculus [5] = assay: Inhibition of IL1-induced circulating IL6 release in mouse at 10 mg/kg, po; type: functional
Mus musculus [6] = assay: Inhibition of IL1-induced circulating IL6 release in mouse at 1 mg/kg, po; type: functional
[7] = Antiinflammatory activity in human primary synovial fibroblasts assessed as inhibition of IL1-induced IL8 release after 18 hrs by MSD technology; type: functional
[8] = Relative plasma concentration in mouse assessed as ratio of plasma concentration in mouse at 1 mg/kg, po to IC50 for NF-kappaB transrepression activity in A549 cells expressing MMTV reporter gene; type: ADME, organism-based; set-up: dose 1 mg/kg, route oral; conditions: in vivo
Hepatocyte = assay: Toxicity in human hepatocytes assessed as increase in PEPCK mRNA level after 18 hrs by PCR; type: cell-based
[9] = Plasma concentration in mouse bearing mouse NIH-3T3 cells integrated with MMTV reporter gene at 0.01 mg/kg, po after 1 hr; type: ADME, organism-based, NIH3T3; set-up: dose 0.01 mg/kg, route oral
Mus musculus [10] = assay: Inhibition of IL1-induced circulating IL6 release in mouse at 0.01 mg/kg, po; type: functional
[11] = Antiinflammatory activity in human primary synovial fibroblasts assessed as inhibition of IL1-induced MMP1 release after 18 hrs by MSD technology; type: functional
[12] = Antiinflammatory activity in human primary synovial fibroblasts assessed as inhibition of IL1-induced IL6 release after 18 hrs by MSD technology; type: functional
[13] = Relative plasma concentration in mouse assessed as ratio of plasma concentration in mouse at 10 mg/kg, po to IC50 for NF-kappaB transrepression activity in A549 cells expressing MMTV reporter gene; type: ADME, organism-based; set-up: dose 10 mg/kg, route oral; conditions: in vivo
[14] = Relative fraction unbound in mouse assessed as ratio of fraction unbound in mouse at 0.1 mg/kg, po to IC50 for NF-kappaB transrepression activity in A549 cells expressing MMTV reporter gene; type: ADME, organism-based; set-up: dose 0.1 mg/kg, route oral; conditions: in vivo
[15] = Plasma concentration in mouse bearing mouse NIH-3T3 cells integrated with MMTV reporter gene at 10 mg/kg, po after 1 hr; type: ADME, organism-based, NIH3T3; set-up: dose 10 mg/kg, route oral
[16] = Plasma concentration in mouse bearing mouse NIH-3T3 cells integrated with MMTV reporter gene at 0.1 mg/kg, po after 1 hr; type: ADME, organism-based, NIH3T3; set-up: dose 0.1 mg/kg, route oral
[17] = Relative plasma concentration in mouse assessed as ratio of plasma concentration in mouse at 0.01 mg/kg, po to IC50 for NF-kappaB transrepression activity in A549 cells expressing MMTV reporter gene; type: ADME, organism-based; set-up: dose 0.01 mg/kg, route oral; conditions: in vivo
Mus musculus [18] = assay: Inhibition of IL1-induced circulating IL6 release in mouse at 0.1 mg/kg, po; type: functional
[19] = Relative fraction unbound in mouse assessed as ratio of fraction unbound in mouse at 10 mg/kg, po to IC50 for NF-kappaB transrepression activity in A549 cells expressing MMTV reporter gene; type: ADME, organism-based; set-up: dose 10 mg/kg, route oral; conditions: in vivo
[20] = Plasma concentration in mouse bearing mouse NIH-3T3 cells integrated with MMTV reporter gene at 1 mg/kg, po after 1 hr; type: ADME, organism-based, NIH3T3; set-up: dose 1 mg/kg, route oral
[21] = Relative fraction unbound in mouse assessed as ratio of fraction unbound in mouse at 0.01 mg/kg, po to IC50 for NF-kappaB transrepression activity in A549 cells expressing MMTV reporter gene; type: ADME, organism-based; set-up: dose 0.01 mg/kg, route oral; conditions: in vivo
[22] = Relative plasma concentration in mouse assessed as ratio of plasma concentration in mouse at 0.1 mg/kg, po to IC50 for NF-kappaB transrepression activity in A549 cells expressing MMTV reporter gene; type: ADME, organism-based; set-up: dose 0.1 mg/kg, route oral; conditions: in vivo
[23] = Relative fraction unbound in mouse assessed as ratio of fraction unbound in mouse at 1 mg/kg, po to IC50 for NF-kappaB transrepression activity in A549 cells expressing MMTV reporter gene; type: ADME, organism-based; set-up: dose 1 mg/kg, route oral; conditions: in vivo

Structure (SMILES): O=S(=O)(Nc1ccc(-c2ccc3c(cnn3-c3ccc(F)cc3)c2)c(C(F)(F)F)c1)c1cccc(C(F)(F)F)c1
IC50 (Glucocorticoid receptor [1]): 0.0501 µM
EC50 (Glucocorticoid receptor [2]): 0.2 µM
IC50 (Progesterone receptor): > 10 µM
IC50 (Androgen receptor): 3.98 µM
IC50 (Glucocorticoid receptor [3]): 0.0631 µM

Structure (SMILES): CCCCN(c1ccccc1)S(=O)(=O)c1ccc(-c2ccc3c(cnn3-c3ccc(F)cc3)c2)c(C(F)(F)F)c1
IC50 (Glucocorticoid receptor [1]): 0.0251 µM
EC50 (Glucocorticoid receptor [2]): > 10 µM
IC50 (Progesterone receptor): > 10 µM
IC50 (Androgen receptor): > 10 µM
IC50 (Glucocorticoid receptor [3]): > 10 µM

Structure (SMILES): C[C@@H]1C[C@H]2[C@@H]3CCC4=CC(=O)C=C[C@]4(C)[C@@]3(F)[C@@H](O)C[C@]2(C)[C@@]1(O)C(=O)CO [DEXAMETHASONE]
Activity [4]: Toxic
inhibition in vivo at 10 mg/kg (Mus musculus [5]): 83%
inhibition in vivo at 1 mg/kg (Mus musculus [6]): 88%
IC50 [7]: 0.000501 µM
fold change (FC) [8]: 300
Activity (Hepatocyte): Toxic
concentration at 1 h [9]: 44 nM
inhibition in vivo at 0.01 mg/kg (Mus musculus [10]): 24%
IC50 [11]: 0.000316 µM
IC50 [12]: 0.000631 µM
fold change (FC) [13]: 2944
fold change (FC) [14]: 8
concentration at 1 h [15]: 17700 nM
concentration at 1 h [16]: 236 nM
fold change (FC) [17]: 7
inhibition in vivo at 0.1 mg/kg (Mus musculus [18]): 67%
fold change (FC) [19]: 870
concentration at 1 h [20]: 1800 nM
fold change (FC) [21]: 0.4
fold change (FC) [22]: 40
fold change (FC) [23]: 86

Other lines, results leading:

IC50 (Glucocorticoid receptor [1]): 0.0398 µM
EC50 (Glucocorticoid receptor [2]): 0.251 µM
IC50 (Progesterone receptor): > 10 µM
IC50 (Androgen receptor): > 10 µM
IC50 (Glucocorticoid receptor [3]): 0.0794 µM
Structure (SMILES): O=S(=O)(Nc1ccc(-c2ccc3c(cnn3-c3ccc(F)cc3)c2)c(C(F)(F)F)c1)c1cccc(OC(F)(F)F)c1

IC50 (Glucocorticoid receptor [1]): 0.0158 µM
EC50 (Glucocorticoid receptor [2]): 0.2 µM
IC50 (Progesterone receptor): > 10 µM
IC50 (Androgen receptor): > 10 µM
IC50 (Glucocorticoid receptor [3]): 0.126 µM
Structure (SMILES): CCN(c1ccccc1)S(=O)(=O)c1ccc(-c2ccc3c(cnn3-c3ccc(F)cc3)c2)c(C(F)(F)F)c1

IC50 (Glucocorticoid receptor [1]): 0.0158 µM
EC50 (Glucocorticoid receptor [2]): 0.316 µM
IC50 (Progesterone receptor): > 10 µM
IC50 (Androgen receptor): > 10 µM
IC50 (Glucocorticoid receptor [3]): 0.316 µM
Structure (SMILES): CCCN(c1ccccc1)S(=O)(=O)c1ccc(-c2ccc3c(cnn3-c3ccc(F)cc3)c2)c(C(F)(F)F)c1

IC50 (Glucocorticoid receptor [1]): 0.0158 µM
EC50 (Glucocorticoid receptor [2]): 0.126 µM
IC50 (Progesterone receptor): > 2.51 µM
IC50 (Androgen receptor): > 10 µM
IC50 (Glucocorticoid receptor [3]): 0.0501 µM
Structure (SMILES): CC(C)N(c1ccccc1)S(=O)(=O)c1ccc(-c2ccc3c(cnn3-c3ccc(F)cc3)c2)c(C(F)(F)F)c1
